Experimental data as given in patent US20150105252A1, “SUBSTITUTED PYRAZOLES AS HERBICIDES” (E I DU PONT DE NEMOURS AND COMPANY, priority 2013, published 2015).

What was measured:
morningglory = test: Test A preemergence; format: in vivo, Ipomoea spp.; conditions: preemergence; for Morningglory plant response rating (0 to 100 scale): 125 g ai/ha, visual injury approx. 10 days after treatment
In short: (§1)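 Both timings tested concurrently in loam/sand soil: preemergence by directed soil spray, postemergence on plants of 2–10 cm at the one- to two-leaf stage. Greenhouse holding period was approximately 10 days before visual injury assessment (0–100, 0 = no effect).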

barnyardgrass [1] = test: Test A postemergence; format: in vivo, Echinochloa crus-galli
In short: as §1

ducksalad = test: Test B flood; format: in vivo, Heteranthera limosa; conditions: 250 g ai/ha, visual rating on 0 to 100 scale (0 no effect, 100 complete control), 13 to 15 days
In short: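 Greenhouse assay lasting 13 to 15 days. Treatment was into water flooding pots 3 cm deep, at the 2-leaf stage, with that level sustained afterwards. Scores compare treated with control plants visually, 100 denoting complete control and 0 no effect; a dash marks no test result.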

blackgrass = test: Test C preemergence; format: in vivo, Alopecurus myosuroides; conditions: preemergence; for Plant response rating, Blackgrass: 125 g ai/ha, scale 0 to 100, 0 = no effect, 100 = complete control
In short: (§2)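 In this greenhouse assay, seeded soil (loam plus sand) or emerged seedlings in peat-vermiculite medium were treated with formulated compound. Roughly two weeks later (13–15 days), each species was scored visually relative to controls, from 0 for no effect to 100 for complete control.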

johnsongrass = test: Test C preemergence; format: in vivo, Sorghum halepense
In short: as §2

lambsquarters = test: Test C preemergence; format: in vivo, Chenopodium album
In short: as §2

soybean = test: Test C preemergence; format: in vivo, Glycine max
In short: as §2

barnyardgrass [2] = test: Test C preemergence; format: in vivo, Echinochloa crus-galli; conditions: preemergence; for Plant response rating, Barnyardgrass: 125 g ai/ha, scale 0 to 100, 0 = no effect, 100 = complete control
In short: as §2

ryegrass, Italian = test: Test C postemergence; format: in vivo, Lolium multiflorum; conditions: postemergence
In short: as §2

corn = test: Test C postemergence; format: in vivo, Zea mays; conditions: for Plant response rating (scale of 0 to 100 where 0 is no effect and 100 is complete control), Corn: Postemergence, 31 g ai/ha, visually evaluated after 13 to 15 days; for Corn plant response rating / Plant response rating, Corn: postemergence; for Corn plant response rating: 62 g ai/ha, scale 0 to 100
In short: as §2

crabgrass, large = test: Test C postemergence; format: in vivo, Digitaria sanguinalis; conditions: for Plant response rating (scale of 0 to 100 where 0 is no effect and 100 is complete control), Crabgrass, Large: Postemergence, 31 g ai/ha, visually evaluated after 13 to 15 days; for Crabgrass, Large plant response rating / Plant response rating, Crabgrass, Large: postemergence; for Crabgrass, Large plant response rating: 62 g ai/ha, scale 0 to 100
In short: as §2

pigweed = test: Test C postemergence; format: in vivo, Amaranthus retroflexus; conditions: postemergence; for Pigweed plant response rating: 62 g ai/ha, scale 0 to 100
In short: as §2

chickweed = test: Test C postemergence; format: in vivo, Stellaria media; conditions: for Plant response rating (scale of 0 to 100 where 0 is no effect and 100 is complete control), Chickweed: Postemergence, 31 g ai/ha, visually evaluated after 13 to 15 days; for Chickweed plant response rating / Plant response rating, Chickweed: postemergence; for Chickweed plant response rating: 62 g ai/ha, scale 0 to 100
In short: as §2

[3] = Postemergence, 500 g ai/ha, 0 to 100 scale (0 no effect, 100 complete control)
[4] = 31 g ai/ha, visual rating, scale 0 to 100 (0 no effect, 100 complete control), 13 to 15 days
[5] = 62 g ai/ha, scale 0 to 100 (0 no effect, 100 complete control), 13 to 15 days
[6] = 250 g ai/ha, scale 0 to 100, 0 is no effect, 100 is complete control
[7] = preemergence, 31 g ai/ha, visual rating, scale 0 to 100 (0 no effect, 100 complete control), 13 to 15 days
[8] = preemergence, 62 g ai/ha, scale 0 to 100 (0 no effect, 100 complete control), 13 to 15 days
[9] = preemergence, 125 g ai/ha, 13 to 15 days, scale 0 to 100, 0 = no effect, 100 = complete control
[10] = preemergence, 250 g ai/ha, scale 0 to 100, 0 is no effect, 100 is complete control
[11] = 250 g ai/ha, scale 0 to 100 (0 no effect, 100 complete control)
[12] = 125 g ai/ha, scale 0 to 100, 0 no effect, 100 complete control
[13] = Preemergence, rate head not shown (block before 16 g ai/ha), scale 0 to 100

CCCNC(=O)c1cc(OCC)n(Cc2ccnc(C(F)(F)F)c2)n1 [Compound 187]
Morningglory plant response rating (0 to 100 scale) (morningglory): 100
Morningglory plant response rating (morningglory; 500 g ai/ha, visual injury after approx. 10 days, 0 to 100 scale (0 no effect, 100 complete control)): 100
Barnyardgrass plant response rating (barnyardgrass [1]; [3]): 90
Barnyardgrass plant response rating (barnyardgrass [1]; postemergence, 125 g ai/ha, about 10 days, visual rating on 0 to 100 scale (0 no effect, 100 complete control)): 90
Plant response rating, Ducksalad (ducksalad): 90
Blackgrass plant response rating (blackgrass; [4]): 90
Blackgrass plant response rating (blackgrass; [5]): 90
Plant response rating, Blackgrass (blackgrass; 13 to 15 days): 90
Blackgrass plant response rating (blackgrass; [6]): 95
Johnsongrass plant response rating (johnsongrass; [7]): 75
Johnsongrass plant response rating (johnsongrass; [8]): 98
Plant response rating, Johnsongrass (johnsongrass; [9]): 100
Johnsongrass plant response rating (johnsongrass; [10]): 100
Lambsquarters plant response rating (lambsquarters; [7]): 100
Lambsquarters plant response rating (lambsquarters; [8]): 100
Plant response rating, Lambsquarters (lambsquarters; [9]): 100
Lambsquarters plant response rating (lambsquarters; [10]): 100
Soybean plant response rating (soybean; [7]): 85
Soybean plant response rating (soybean; [8]): 95
Plant response rating, Soybean (soybean; [9]): 98
Soybean plant response rating (soybean; [10]): 98
Barnyardgrass plant response rating (barnyardgrass [2]; [4]): 95
Barnyardgrass plant response rating (barnyardgrass [2]; [5]): 100
Plant response rating, Barnyardgrass (barnyardgrass [2]; 13 to 15 days): 100
Barnyardgrass plant response rating (barnyardgrass [2]; [6]): 100
Plant response rating, Ryegrass, Italian (ryegrass, Italian; [11]): 30
Plant response rating, Ryegrass, Italian (ryegrass, Italian; [12]): 5
Plant response rating (scale of 0 to 100 where 0 is no effect and 100 is complete control), Corn (corn): 5
Corn plant response rating (corn): 5
Plant response rating, Corn (corn; [11]): 65
Plant response rating, Corn (corn; [12]): 60
Plant response rating (scale of 0 to 100 where 0 is no effect and 100 is complete control), Crabgrass, Large (crabgrass, large): 10
Crabgrass, Large plant response rating (crabgrass, large): 20
Plant response rating, Crabgrass, Large (crabgrass, large; [11]): 95
Plant response rating, Crabgrass, Large (crabgrass, large; [12]): 60
Pigweed plant response rating (pigweed): 50
Plant response rating, Pigweed (pigweed; [11]): 75
Plant response rating, Pigweed (pigweed; [12]): 60
Plant response rating (scale of 0 to 100 where 0 is no effect and 100 is complete control), Chickweed (chickweed): 98
Chickweed plant response rating (chickweed): 70
Plant response rating, Chickweed (chickweed; [11]): 85
Plant response rating, Chickweed (chickweed; [12]): 80

CCc1cc(C(=O)NC2CC2)nn1Cc1ccnc(Br)c1 [Compound 220]
Morningglory plant response rating (0 to 100 scale) (morningglory): 20
Barnyardgrass plant response rating (barnyardgrass [1]; Postemergence, 125 g ai/ha, 0 to 100 scale, 0 no effect, 100 complete control): 80
Barnyardgrass plant response rating (barnyardgrass [1]; [3]): 100
Plant response rating, Ducksalad (ducksalad): 65
Blackgrass plant response rating (blackgrass; [4]): 0
Blackgrass plant response rating (blackgrass; [5]): 0
Plant response rating, Blackgrass (blackgrass; 13 to 15 days): 40
Blackgrass plant response rating (blackgrass; [6]): 70
Plant response rating, Johnsongrass (johnsongrass; [13]): 10
Johnsongrass plant response rating (johnsongrass; [8]): 5
Plant response rating, Johnsongrass (johnsongrass; [9]): 5
Johnsongrass plant response rating (johnsongrass; [10]): 80
Plant response rating, Lambsquarters (lambsquarters; [13]): 60
Lambsquarters plant response rating (lambsquarters; [8]): 98
Plant response rating, Lambsquarters (lambsquarters; [9]): 100
Lambsquarters plant response rating (lambsquarters; [10]): 100
Plant response rating, Soybean (soybean; [13]): 10
Soybean plant response rating (soybean; [8]): 10
Plant response rating, Soybean (soybean; [9]): 35
Soybean plant response rating (soybean; [10]): 60
Barnyardgrass plant response rating (barnyardgrass [2]; [4]): 0
Barnyardgrass plant response rating (barnyardgrass [2]; [5]): 15
Plant response rating, Barnyardgrass (barnyardgrass [2]; 13 to 15 days): 35
Barnyardgrass plant response rating (barnyardgrass [2]; [6]): 95
Plant response rating, Ryegrass, Italian (ryegrass, Italian; [11]): 5
Plant response rating, Ryegrass, Italian (ryegrass, Italian; [12]): 5
Plant response rating (scale of 0 to 100 where 0 is no effect and 100 is complete control), Corn (corn): 5
Corn plant response rating (corn): 5
Plant response rating, Corn (corn; [11]): 10
Plant response rating, Corn (corn; [12]): 5
Plant response rating (scale of 0 to 100 where 0 is no effect and 100 is complete control), Crabgrass, Large (crabgrass, large): 5
Crabgrass, Large plant response rating (crabgrass, large): 5
Plant response rating, Crabgrass, Large (crabgrass, large; [11]): 10
Plant response rating, Crabgrass, Large (crabgrass, large; [12]): 5
Pigweed plant response rating (pigweed): 25
Plant response rating, Pigweed (pigweed; [11]): 60
Plant response rating, Pigweed (pigweed; [12]): 40
Plant response rating (scale of 0 to 100 where 0 is no effect and 100 is complete control), Chickweed (chickweed): 50
Chickweed plant response rating (chickweed): 55
Plant response rating, Chickweed (chickweed; [11]): 80
Plant response rating, Chickweed (chickweed; [12]): 60
